This is an account of results in ChEMBL document CHEMBL5543097, “Synthesis and structure-activity relationships of novel 14-membered 2-fluoro ketolides with structural modification at the C11 position” (Eur J Med Chem, 2024).

For data set [1], the system named is Moraxella catarrhalis. In words: Antibacterial activity against Moraxella catarrhalis BCA 19-6 assessed as inhibition of bacterial growth incubated for 24 hrs by CLSI based broth microdilution method. The following applies: Moraxella catarrhalis, BCA 19-6, 24 h, read-out: MIC. The format is functional.
In data set [2] the test system is Staphylococcus epidermidis. In words: Potency index, ratio of telithromycin MIC to test compound MIC for antibacterial activity against erythromycin-resistant Staphylococcus epidermidis 19-5 assessed as inhibition of visible bacterial growth incubated for 18 hrs by broth microdilution method. In kind it is functional. A general note: Broth dilution looks for growth in wells or tubes with falling amounts of substance.

Another data set concerns Streptococcus pyogenes. In words: Antibacterial activity against erythromycin-resistant Streptococcus pyogenes ATCC 19615 assessed as inhibition of visible bacterial growth incubated for 18 hrs by broth microdilution method. The format is functional.
For data set [3], the system named is Staphylococcus epidermidis. In words: Antibacterial activity against erythromycin-resistant Staphylococcus epidermidis 19-11 assessed as inhibition of visible bacterial growth incubated for 18 hrs by broth microdilution method. In kind it is functional.
Data set [4] concerns Staphylococcus epidermidis. In words: Antibacterial activity against erythromycin-resistant Staphylococcus epidermidis 19-8 assessed as inhibition of visible bacterial growth incubated for 18 hrs by broth microdilution method. In kind it is functional.
Data set [5] deals with Streptococcus pneumoniae. In words: Antibacterial activity against erythromycin-resistant Streptococcus pneumoniae SPN19-8 assessed as inhibition of visible bacterial growth incubated for 18 hrs by broth microdilution method. The format is functional.
Data set [6] has as its system Staphylococcus epidermidis. In words: Potency index, ratio of telithromycin MIC to test compound MIC for antibacterial activity against erythromycin-resistant Staphylococcus epidermidis 19-6 assessed as inhibition of visible bacterial growth incubated for 18 hrs by broth microdilution method. In kind it is functional.
Data set [7] relates to Streptococcus pneumoniae. In words: Potency index, ratio of telithromycin MIC to test compound MIC for antibacterial activity against Streptococcus pneumoniae SPN19-13 assessed as inhibition of visible bacterial growth incubated for 18 hrs by broth microdilution method. In kind it is functional.
A further data set relates to Escherichia coli. In words: Antibacterial activity against Escherichia coli ATCC 35218 assessed as inhibition of visible bacterial growth. The format is functional, organism-based.
Data set [8] has as its system Streptococcus pneumoniae. In words: Antibacterial activity against erythromycin-resistant Streptococcus pneumoniae SPN19-14 assessed as inhibition of visible bacterial growth incubated for 18 hrs by broth microdilution method. The format is functional.
Data set [9] has as its system Staphylococcus epidermidis. In words: Potency index, ratio of telithromycin MIC to test compound MIC for antibacterial activity against erythromycin-resistant Staphylococcus epidermidis 19-9 assessed as inhibition of visible bacterial growth incubated for 18 hrs by broth microdilution method. The format is functional.
For data set [10], the system named is Streptococcus pneumoniae. In words: Potency index, ratio of telithromycin MIC to test compound MIC for antibacterial activity against Streptococcus pneumoniae SPN19-14 assessed as inhibition of visible bacterial growth incubated for 18 hrs by broth microdilution method. The format is functional.
The subject of another data set is Enterococcus faecium. In words: Antibacterial activity against vancomycin-resistant Enterococcus faecium assessed as inhibition of visible bacterial growth. In kind it is functional.
The subject of data set [11] is Staphylococcus epidermidis. In words: Potency index, ratio of telithromycin MIC to test compound MIC for antibacterial activity against erythromycin-resistant Staphylococcus epidermidis 19-4 assessed as inhibition of visible bacterial growth incubated for 18 hrs by broth microdilution method. In kind it is functional.
For data set [12], the system named is Haemophilus influenzae. In words: Antibacterial activity against Haemophilus influenzae HIN 19-18 assessed as inhibition of bacterial growth incubated for 20 to 24 hrs by CLSI based broth microdilution method. In kind it is functional. The following applies: HIN 19-18, time 20-24 hrs.
Data set [13] has as its system Moraxella catarrhalis. In words: Antibacterial activity against Moraxella catarrhalis BCA 19-5 assessed as inhibition of bacterial growth incubated for 24 hrs by CLSI based broth microdilution method. In kind it is functional. The note with it: Moraxella catarrhalis, BCA 19-5, 24 h, read-out: MIC.
The test system of data set [14] is Staphylococcus epidermidis. In words: Potency index, ratio of telithromycin MIC to test compound MIC for antibacterial activity against erythromycin-resistant Staphylococcus epidermidis 19-8 assessed as inhibition of visible bacterial growth incubated for 18 hrs by broth microdilution method. The format is functional.
Data set [15] relates to Streptococcus pneumoniae. In words: Antibacterial activity against erythromycin-resistant Streptococcus pneumoniae SPN19-13 assessed as inhibition of visible bacterial growth incubated for 18 hrs by broth microdilution method. In kind it is functional.
Data set [16] concerns Moraxella catarrhalis. In words: Antibacterial activity against Moraxella catarrhalis BCA 19-31 assessed as inhibition of bacterial growth incubated for 24 hrs by CLSI based broth microdilution method. The format is functional. The note with it: BCA 19-31, 24 h.
Data set [17] has as its system Haemophilus influenzae. In words: Antibacterial activity against Haemophilus influenzae HIN 19-15 assessed as inhibition of bacterial growth incubated for 20 to 24 hrs by CLSI based broth microdilution method. The format is functional. The following applies: time 20-24 hrs.
Data set [18] concerns Staphylococcus epidermidis. In words: Antibacterial activity against erythromycin-resistant Staphylococcus epidermidis 19-6 assessed as inhibition of visible bacterial growth incubated for 18 hrs by broth microdilution method. In kind it is functional.
In data set [19] the test system is Staphylococcus epidermidis. In words: Potency index, ratio of telithromycin MIC to test compound MIC for antibacterial activity against erythromycin-resistant Staphylococcus epidermidis 19-11 assessed as inhibition of visible bacterial growth incubated for 18 hrs by broth microdilution method. In kind it is functional.
Data set [20] deals with Staphylococcus epidermidis. In words: Antibacterial activity against erythromycin-resistant Staphylococcus epidermidis 19-9 assessed as inhibition of visible bacterial growth incubated for 18 hrs by broth microdilution method. The format is functional.
In data set [21] the test system is Streptococcus agalactiae. In words: Antibacterial activity against erythromycin-resistant Streptococcus agalactiae 19-8 assessed as inhibition of visible bacterial growth incubated for 18 hrs by broth microdilution method. In kind it is functional.
Data set [22] has as its system Staphylococcus epidermidis. In words: Antibacterial activity against erythromycin-resistant Staphylococcus epidermidis 19-4 assessed as inhibition of visible bacterial growth incubated for 18 hrs by broth microdilution method. The format is functional.
For data set [23], the system named is Streptococcus pneumoniae. In words: Potency index, ratio of telithromycin MIC to test compound MIC for antibacterial activity against Streptococcus pneumoniae SPN19-8 assessed as inhibition of visible bacterial growth incubated for 18 hrs by broth microdilution method. In kind it is functional.
In data set [24] the test system is Streptococcus agalactiae. In words: Antibacterial activity against erythromycin-resistant Streptococcus agalactiae 19-9 assessed as inhibition of visible bacterial growth incubated for 18 hrs by broth microdilution method. In kind it is functional.
In data set [25] the test system is Staphylococcus epidermidis. In words: Antibacterial activity against erythromycin-resistant Staphylococcus epidermidis 19-5 assessed as inhibition of visible bacterial growth incubated for 18 hrs by broth microdilution method. In kind it is functional.
Data set [26] can be described thus: Cytotoxicity against mouse AML12 cells assessed as reduction in cell viability incubated for 48 hrs by MTT assay. The format is toxicity, cell-based. On the technique in general: Tetrazolium assays rely on reduction of a dye to a coloured formazan, in cell work by metabolically active cells.
A further data set has as its system Staphylococcus aureus. In words: Antibacterial activity against Staphylococcus aureus ATCC 700699 assessed as inhibition of visible bacterial growth. The format is functional.
Data set [27] relates to Haemophilus influenzae. In words: Antibacterial activity against Haemophilus influenzae HIN 20-18 assessed as inhibition of bacterial growth incubated for 20 to 24 hrs by CLSI based broth microdilution method. In kind it is functional. The following applies: time 20-24 hrs.

Each structure is given as a SMILES string. In brackets after ≈: the same amount, converted by molar mass. Activity calls are given as the source filed them. No cut-off for these calls is given here. A value given as a limit tells only on which side of the number the result lay.

One may read the CC50 as the concentration at which the toxic effect on the cells reaches its halfway point. As for `CC[C@H]1OC(=O)[C@@](C)(F)C(=O)[C@H](C)[C@@H](O[C@@H]2O[C@H](C)C[C@H](N(C)C)[C@H]2O)[C@](C)(OC)C[C@@H](C)C(=O)[C@H](C)[C@H]2N(CCCOC(=O)Nc3cccc4ccccc34)C(=O)O[C@]12C`, the MIC (in the data set on Moraxella catarrhalis [1]; in the data set with Streptococcus pyogenes; in data set [3]; in data set [4]; in the data set on Streptococcus pneumoniae [5]; in the data set on Streptococcus pneumoniae [8]) was under 0.03 µg/mL throughout. For the same compound, the MIC in the data set with Enterococcus faecium is 16 µg/mL (≈ 18.6 µM); in the data set with Haemophilus influenzae [12] it was 4 µg/mL (≈ 4.66 µM); in the data set with Moraxella catarrhalis [13] it was under 0.03 µg/mL; in the data set on Streptococcus pneumoniae [15], under 0.03 µg/mL; with Moraxella catarrhalis [16], under 0.03 µg/mL; in the data set with Haemophilus influenzae [17], 4 µg/mL (≈ 4.66 µM). The MIC is under 0.03 µg/mL in [18]; 0.125 µg/mL (≈ 0.146 µM) in data set [20]; under 0.03 µg/mL with Streptococcus agalactiae [21]; under 0.03 µg/mL in data set [22]; under 0.03 µg/mL in the data set on Streptococcus agalactiae [24]; under 0.03 µg/mL in [25]. Also, the Ratio in [2] is reported as 4; in data set [6] it was 4; in the data set on Streptococcus pneumoniae [7], under 4; in [9], 4; in the data set on Streptococcus pneumoniae [10] it was under 4; in data set [11], 4. Also, the Ratio in data set [14] is 4; in data set [19], 4; in the data set on Streptococcus pneumoniae [23] it was under 4. Besides, the outcome with Escherichia coli was Active. In addition, the CC50 at 48 h in data set [26] turned out to be 29.4 µM.

As to `CC[C@H]1OC(=O)[C@@](C)(F)C(=O)[C@H](C)[C@@H](O[C@@H]2O[C@H](C)C[C@H](N(C)C)[C@H]2O)[C@](C)(OC)C[C@@H](C)C(=O)[C@H](C)[C@H]2N(CCCOC(=O)Nc3ccc(C(F)(F)F)cc3)C(=O)O[C@]12C`, the MIC in the data set on Moraxella catarrhalis [1] is 0.125 µg/mL (≈ 0.143 µM); with Streptococcus pyogenes it was under 0.03 µg/mL; in data set [3] it was under 0.03 µg/mL; in [4], 0.06 µg/mL (≈ 0.0685 µM); with Streptococcus pneumoniae [5], 0.125 µg/mL (≈ 0.143 µM); in the data set with Streptococcus pneumoniae [8], 0.125 µg/mL (≈ 0.143 µM). For the same compound, the MIC in the data set on Enterococcus faecium is 16 µg/mL (≈ 18.3 µM); in the data set with Moraxella catarrhalis [13], 0.125 µg/mL (≈ 0.143 µM); with Streptococcus pneumoniae [15], 0.125 µg/mL (≈ 0.143 µM); with Moraxella catarrhalis [16] it was 0.06 µg/mL (≈ 0.0685 µM); with Haemophilus influenzae [17], 4 µg/mL (≈ 4.57 µM); in data set [18], 0.125 µg/mL (≈ 0.143 µM). Besides, the MIC is 0.25 µg/mL (≈ 0.285 µM) in [20]; 16 µg/mL (≈ 18.3 µM) in the data set with Staphylococcus aureus; 0.03 µg/mL (≈ 0.0342 µM) in [22]; 1 µg/mL (≈ 1.14 µM) in the data set on Streptococcus agalactiae [24]; under 0.03 µg/mL in data set [25]. For the same compound, the CC50 at 48 h in data set [26] came to 19.6 µM.

As for `CCOc1ccccc1NC(=O)OCCCN1C(=O)O[C@]2(C)[C@@H](CC)OC(=O)[C@@](C)(F)C(=O)[C@H](C)[C@@H](O[C@@H]3O[C@H](C)C[C@H](N(C)C)[C@H]3O)[C@](C)(OC)C[C@@H](C)C(=O)[C@H](C)[C@@H]12`, the MIC in the data set with Moraxella catarrhalis [1] is 0.125 µg/mL (≈ 0.147 µM); in the data set with Streptococcus pyogenes, under 0.03 µg/mL; in data set [3], 0.16 µg/mL (≈ 0.188 µM); in data set [4] it was 0.06 µg/mL (≈ 0.0704 µM); in the data set with Streptococcus pneumoniae [5], 0.125 µg/mL (≈ 0.147 µM); with Streptococcus pneumoniae [8], 0.06 µg/mL (≈ 0.0704 µM). In addition, the MIC with Haemophilus influenzae [12] came out at 2 µg/mL (≈ 2.35 µM); with Moraxella catarrhalis [13], 0.125 µg/mL (≈ 0.147 µM); with Streptococcus pneumoniae [15], 0.06 µg/mL (≈ 0.0704 µM); with Moraxella catarrhalis [16], 0.03 µg/mL (≈ 0.0352 µM); in the data set with Haemophilus influenzae [17], 4 µg/mL (≈ 4.69 µM); in [18], 0.125 µg/mL (≈ 0.147 µM). For the same compound, the MIC is 0.5 µg/mL (≈ 0.587 µM) in [20]; 16 µg/mL (≈ 18.8 µM) in the data set on Staphylococcus aureus; 8 µg/mL (≈ 9.39 µM) in the data set with Haemophilus influenzae [27]; 0.06 µg/mL (≈ 0.0704 µM) in data set [22]; 0.25 µg/mL (≈ 0.293 µM) with Streptococcus agalactiae [24]; under 0.03 µg/mL in [25]. For the same compound, the CC50 at 48 h in data set [26] was over 100 µM.
